Patent US5707615A, “Method of treating HIV infections with anti-viral formulations” (Merrell Pharmaceuticals Inc., priority 1997, dated 1998)

Key:
HIV-I, GB8 = assay: Ability to prevent syncytia formation and expression of P24 viral core antigen using JM cells and GB8 virus strain (Example I); format: cell-based; conditions: for P24 % CONTROL: 4320 min
Protocol: The virus was first incubated with an oligomer for 15 minutes and then the cells were added. After 2 hours adsorption, the virus innoculum was removed and the cells were washed three times to remove traces of input virus. Antiviral activity was determined after 3 days incubation by plotting the mean number of syncytia found in quadruple cultures against log10 concentration of anionic polymer or of other test compounds. The potency of an oligomer was also measured by assaying viral core antigen (P24 test-Abbott) in the supernatant fluid. Heparin, dextran sulfate, rs CD4, ATZ and/or ddC data, when included in any of the following Tables, are provided as positive controls.

HIV strain RF = assay: Ability to prevent virus-induced cell death using MT4 cells and strain RF (Example III); format: cell-based; conditions: MT4 cells, 7 days, MTT
Protocol: (§1) Various oligomers were dissolved in RPMI and were then assayed for anti-HIV activity by making doubling dilutions of the solutions across a 96 well microtitre plate. To each well were then added 5×10^4 cells and 100 TCID50 of virus and the plates incubated at 37° C. for 7 days. MTT was added to each well and the plates incubated for a further 2 hours. The blue formazan crystals were dissolved using acidic isopropanol, and the absorbance measured at 540 nm.

MT4 cells = assay: Toxicity to MT4 cells (TD50, Table IV, MTT); format: cell-based; conditions: human, mt4 cells, 168 h
Protocol: as §1

[1] = test system: viral protein which is responsible for cell recognition; conditions: cited from earlier work
[2] = in vivo; cited from earlier work
HIV-I (GB8) = assay: Pretreatment of JM cells and block of HIV-I (GB8) infection (Example IV); conditions: pretreated overnight at 20 μg/mL
Protocol: JM cells were pretreated overnight at 37° C. with different compounds at 20 μg/mL or left untreated. The cells were washed 3 times in RPMI medium and then infected with HIV-I (GB8) for 2 hours at room temperature. The cells were again washed 3 times in RPMI medium and resuspended in fresh medium prior to being distributed into duplicate wells and incubated at 37° C. After 2 days syncytia were scored and the cell free supernatant fluid harvested and assayed for P24 viral core antigen using the Coulter™ HIV antigen assay.

GB8 virus in JM cells = assay: Virus infection of JM cells with GB8 in the presence of test compounds: syncytia and P24 (Example II); conditions: for SYNCYTIA % / P24 %: % of control; for SYNCYTIA %: 2880 min; for P24 %: 5760 min

For Heparin [reference compound], the P24 (HIV-I, GB8; 0.6 μg/mL) was 44570 pg/mL, the “P24 % CONTROL” value (HIV-I, GB8; 0.6 μg/mL) was 0.1% and the P24 (HIV-I, GB8; 2.5 μg/mL) was 25775 pg/mL. For the same substance, the “P24 % CONTROL” value (HIV-I, GB8; 2.5 μg/mL) was less than 0.1%, the P24 (HIV-I, GB8; 5.0 μg/mL) was 2500 pg/mL and the “P24 % CONTROL” value (HIV-I, GB8; 5.0 μg/mL) was less than 0.1%. For the same substance, the SYNCYTIA (HIV-I, GB8; 5.0 μg/mL, after 3 days) was 0, the ED50 (HIV strain RF) was 4.6 µg/mL and the TD50 (MT4 cells) was greater than 100 µg/mL. The “inhibition of host cell infection” value [1] was “limited inhibition of host cell infection”, the side effects [2] was “hemorrhage and increased clot formation time as well as thrombocytopenia” and the P24 (HIV-I (GB8)) was 29090 pg/mL. The “MEAN SYNCYTIA” value (HIV-I (GB8); 2 days) was 136, the P24 % (HIV-I (GB8); % of control, 2880 min) was 103% and the SYNCYTIA % (HIV-I (GB8); % of control, 2880 min) was 114%. For the same substance, the “SYNCYTIA (2 DAYS) MEAN” value (GB8 virus in JM cells; Table II, 0.01 μg/mL) was 38, the SYNCYTIA % (GB8 virus in JM cells; Table II, 0.01 μg/mL) was 90% and the “SYNCYTIA (2 DAYS) MEAN” value (GB8 virus in JM cells; Table II, 0.03 μg/mL) was 29. The SYNCYTIA % (GB8 virus in JM cells; Table II, 0.03 μg/mL) was 69%, the “SYNCYTIA (2 DAYS) MEAN” value (GB8 virus in JM cells; Table II, 0.1 μg/mL) was 24 and the SYNCYTIA % (GB8 virus in JM cells; Table II, 0.1 μg/mL) was 57%. For the same substance, the P24 (GB8 virus in JM cells; Table II, 0.3 μg/mL) was 4.1 × 10^4 units/mL, the “SYNCYTIA (2 DAYS) MEAN” value (GB8 virus in JM cells; Table II, 0.3 μg/mL) was 22 and the SYNCYTIA % (GB8 virus in JM cells; Table II, 0.3 μg/mL) was 52%. The P24 % (GB8 virus in JM cells; Table II, 0.3 μg/mL) was 11%, the “SYNCYTIA (2 DAYS) MEAN” value (GB8 virus in JM cells; Table II, 1 μg/mL) was 2 and the SYNCYTIA % (GB8 virus in JM cells; Table II, 1 μg/mL) was 5%. The P24 % (GB8 virus in JM cells; Table II, 1 μg/mL) was 8%, the P24 (GB8 virus in JM cells; Table II, 3 μg/mL) was 1.7 × 10^4 units/mL and the “SYNCYTIA (2 DAYS) MEAN” value (GB8 virus in JM cells; Table II, 3 μg/mL) was 0. The SYNCYTIA % (GB8 virus in JM cells; Table II, 3 μg/mL) was 0%, the P24 % (GB8 virus in JM cells; Table II, 3 μg/mL) was 5% and the “SYNCYTIA (2 DAYS) MEAN” value (GB8 virus in JM cells; Table II, 10 μg/mL) was 0. For the same substance, the SYNCYTIA % (GB8 virus in JM cells; Table II, 10 μg/mL) was 0%, the P24 % (GB8 virus in JM cells; Table II, 10 μg/mL) was 3% and the P24 (GB8 virus in JM cells; Table III, 1 μg/mL) was 211000 pg/mL. The “SYNCYTIA MEAN” value (GB8 virus in JM cells; Table III, 1 μg/mL) was 13, the SYNCYTIA % (GB8 virus in JM cells; Table III, 1 μg/mL) was 19% and the P24 % (GB8 virus in JM cells; Table III, 1 μg/mL) was 63%. The P24 (GB8 virus in JM cells; Table III, 10 μg/mL) was 70700 pg/mL, the “SYNCYTIA MEAN” value (GB8 virus in JM cells; Table III, 10 μg/mL) was 0 and the P24 % (GB8 virus in JM cells; Table III, 10 μg/mL) was 21%. The P24 (GB8 virus in JM cells; Table III, 100 μg/mL) was 989 pg/mL, the “SYNCYTIA MEAN” value (GB8 virus in JM cells; Table III, 100 μg/mL) was 0 and the P24 % (GB8 virus in JM cells; Table III, 100 μg/mL) was 0.3%.
